Here are results for one compound from patent US20260055081A1, “Metal Chelator Compounds, Coordination Complexes, and Methods of Preparation and Use Thereof” (University of Puerto Rico, priority 2022, published 2026).

Test [1] addresses T1, Fe(III)-saturated serum transferrin (Fe2-sTf) (Homo sapiens, UniProt P02787).
T1 construct: purchased Sigma T2036
Nature of the test: Scavenging of Fe(III) from Fe(III)-saturated serum transferrin. The test is classed as biochemical. Conditions: 22.5 μM Fe2-sTf with 45 μM DefNEtTrp, pH 7.4, 25° C., monitored over 3 days. The procedure: The ability of DefNEtTrp to scavenge Fe(ITT) from Fe(ITI)-saturated serum transferrin(Fe2-sTf) was also examined. Fe2-sTf was prepared by reacting micromolar amounts of apo-sTf with 4 mol equiv of in situ prepared [Fe(citrate)2]^5− in 20 mM Hepes buffer (pH 7.4) containing 0.1 M NaCl and 27 mM NaHCO3. The sample was extensively dialyzed by rapid spin dialysis to remove the excess unbound Fe(III). The Fe(III) content was determined by the ferrozine colorimetric assay modified from a literature protocol and by monitoring the Fe2-STf-(CO3)2 LMCT band (λmax 465 nm; ε=5200 M^−1 cm^−1) (Viollier 2000, The ferrozine method revisited: Fe(II)/Fe(III) determination in natural waters. Appl. Geochem. 15 (6): 785-790). To 22.5 μM Fe2-sTf was reacted 45 μM DefNEtTrp (diluted in the same protein buffer while maintaining 5% DMF) in quadruplicate at 25° C. The reaction solutions were left to equilibrate and the LMCT absorbance was monitored after 24 h and 72 h. The reaction solutions were extensively dialyzed and then the protein concentrations were quantified by the Bradford colorimetric assay. The UV-Vis spectra of the washed protein samples were collected.

Test [2] concerns CNS cancer cell lines. In words: NCI 60 five-dose screen, CNS panel. Conditions: 48 h. The test is classed as cell-based, human. The procedure: (§1) National Cancer Institute Cancer Cell Line (NCI 60) Screen of DefNEtTrp. Details of the methodology for NCI 60 cell line screening are described at http://dtp.nci.nih.gov/branches/btb/ivclsp.html. The cells, grown in supplemented RPMI-1640 medium, are seeded in 96 well plates at an appropriate density and incubated for 24 h. The test compounds are dissolved in DMSO and incubated with cells at a single dose of 10.0 μM for 48 h. The assay is terminated by addition of cold trichloroacetic acid, and the cells are fixed and stained with sulforhodamine B. Bound stain is solubilized, and the absorbance is read on an automated plate reader. […] Using the seven absorbance measurements [time zero, […], control growth, (C), and test growth in the presence of drug at the five concentration levels (Tf)], the percentage growth was calculated at each of the drug concentrations levels as: [(Tf−Ti)/(C−Ti)]×100 for concentrations for which Tf≥Ti and [(Tf−Ti)/Ti]×100 for concentrations for which Tf<Ti. Three-dose response parameters (GI50, TGI, and LC50) were calculated for each of the experimental agents in five dose assay. […] The total growth inhibition (TGI) was calculated from Tf=Ti, which was the drug concentration resulting in total growth inhibition and signified the cytostatic effect. […]

Test [3] relates to Prostate cancer cell lines. Nature of the test: NCI 60 five-dose screen, prostate panel. Conditions: 48 h. The test is classed as cell-based, human. The procedure:
as §1

The subject of test [4] is Breast cancer cell lines. In words: NCI 60 five-dose screen, breast panel. Conditions: 48 h. The test is classed as cell-based, human. The procedure: as §1
Test [5] deals with Melanoma cell lines. In words: NCI 60 five-dose screen, melanoma panel. The test is classed as cell-based, human. Conditions: 48 h. The procedure: as §1
Test [6] concerns MRC-5 noncancer lung cell line. In words: MRC-5 cell viability (MTT assay). The test is classed as cell-based, human. The following applies: concentration range examined, maximum 100 μM; 72 h. The procedure: MRC-5 cell viability studies. A thawed stock of MRC-5 cells was washed with 1×PBS and resuspended in phenol red DMEM media (supplemented with 10% FBS and 1% penicillin-streptomycin) and then seeded in a 100 mm×20 mm (complete, O.D.×H) petri dish and grown in a 5% (v/v) CO2 humidified atmosphere at 37° C. At least three passages were performed to ensure the integrity of the cells. After this point, cells were collected, thoroughly washed with 1×PBS, and then resuspended in phenol red-free DMEM (supplemented with 10% FBS, 1% penicillin-streptomycin, and 2.4 mM L-glutamine) at a 2.0×10^5 cells/mL concentration. A volume of 50 μL of cells was seeded into 96-well plates. Cells were incubated for 24 h. Stock solutions of DefNEtTrp were prepared fresh in DMF at concentrations of 20,000, 10,000, 5,000, 2,000, 1000, 200, 80, and 40 μM. The solutions were diluted 100-fold in 1×PBS to obtain a second set of stock solutions with 1% DMF(v/v). The MRC-5 cells were treated with 50 μL of DefNEtTrp compound solution from the second set of stock solutions to obtain final concentrations of 100, 50, 25, 10, 5, 1, 0.4, and 0.2 μM with 0.5% DMF (v/v). Control wells were the same type of controls as in the Jurkat cell work. Cells were incubated for 68 h and the MTT assay was performed exactly as described for the Jurkat cells.
A general note: Formazan colour is commonly taken as a measure of viable cells.

[7] abbreviates: cell lines in which TGI was observed.
The mark [8] stands for this setting: Homo sapiens, read-out: GI50 (calculated average).

One may read the GI50 as the concentration giving 50% growth inhibition.

T1 sequence (P02787 20-698): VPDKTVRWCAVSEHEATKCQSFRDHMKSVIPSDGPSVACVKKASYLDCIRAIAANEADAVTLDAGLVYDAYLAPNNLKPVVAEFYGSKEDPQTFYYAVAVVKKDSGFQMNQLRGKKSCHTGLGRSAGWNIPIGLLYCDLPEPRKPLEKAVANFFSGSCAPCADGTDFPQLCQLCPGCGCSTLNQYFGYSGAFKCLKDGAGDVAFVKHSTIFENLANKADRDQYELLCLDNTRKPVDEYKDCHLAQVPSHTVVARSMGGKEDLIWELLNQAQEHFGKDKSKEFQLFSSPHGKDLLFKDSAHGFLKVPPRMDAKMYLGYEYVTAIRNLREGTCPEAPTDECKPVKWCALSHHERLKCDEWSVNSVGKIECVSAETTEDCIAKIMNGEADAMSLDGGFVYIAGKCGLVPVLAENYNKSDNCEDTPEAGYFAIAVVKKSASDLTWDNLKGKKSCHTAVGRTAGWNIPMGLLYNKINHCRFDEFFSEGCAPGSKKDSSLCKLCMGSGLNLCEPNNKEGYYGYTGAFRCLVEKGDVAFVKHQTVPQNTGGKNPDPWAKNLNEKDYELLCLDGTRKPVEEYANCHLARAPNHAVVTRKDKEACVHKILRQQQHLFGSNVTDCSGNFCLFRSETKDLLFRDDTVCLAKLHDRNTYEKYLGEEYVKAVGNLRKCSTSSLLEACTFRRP

As for `Nc1cccnc1/C=N/NC(=S)NCCNC(=O)c1ccc(-n2nc(-c3ccccc3O)nc2-c2ccccc2O)cc1` [DefNEtTrp, deferasirox nitrogen ethyl triapine], the “removal of Fe(III) from Fe2-sTf (LMCT absorbance 465 nm)” value in test [1] is reported as “no metal dissociation”. Moreover, the “TGI (calculated average)” value in test [2] (setting [7]) was 12430 nM; in test [3] (setting [7]) it was 18200 nM; in test [4] (setting [7]), 4840 nM; in test [5] (setting [7]) it was 4730 nM. Besides, the GI50 in test [2] (setting [8]) is 500 nM; in test [3] (setting [8]), 1140 nM; in test [4] (setting [8]), 450 nM; in test [5] (setting [8]), 610 nM. Also, the “antiproliferative behavior against MRC-5” value in test [6] was “no antiproliferative behavior”.
